Results taken from the kinase profiling compilation of Christmann-Franck et al. (2016).

Legend:
Experiment in all cases: KINOMEscan competition binding
Details in all cases: compound 1.0 µM
NEK11 (human) = NEK11 (human) (UniProt Q8NG66)
RPS6KA1 KD2 (human) = RPS6KA1 KD2 (human) (UniProt Q15418)
MAP4K1 (human) = MAP4K1 (human) (UniProt Q92918)
ANKK1 (human) = ANKK1 (human) (UniProt Q8NFD2)
IKBKE (human) = IKBKE (human) (UniProt Q14164)
PRKAA1 (human) = PRKAA1 (human) (UniProt Q13131)
HIPK4 (human) = HIPK4 (human) (UniProt Q8NE63)
[1] = test system: ABL1 (human), P00519 [Y253F]
CAMK1G (human) = CAMK1G (human) (UniProt Q96NX5)
DCLK2 (human) = DCLK2 (human) (UniProt Q8N568)
PAK6 (human) = PAK6 (human) (UniProt Q9NQU5)
[2] = test system: RET (human), P07949 [V804M]
CDK11B (human) = CDK11B (human) (UniProt P21127)
RPS6KA5 KD2 (human) = RPS6KA5 KD2 (human) (UniProt O75582)
CSNK1E (human) = CSNK1E (human) (UniProt P49674)
IRAK1 (human) = IRAK1 (human) (UniProt P51617)
MAPK11 (human) = MAPK11 (human) (UniProt Q15759)
EPHB2 (human) = EPHB2 (human) (UniProt P29323)
BMP2K (human) = BMP2K (human) (UniProt Q9NSY1)
CAMK2G (human) = CAMK2G (human) (UniProt Q13555)
MKNK2 (human) = MKNK2 (human) (UniProt Q9HBH9)
GAK (human) = GAK (human) (UniProt O14976)
MERTK (human) = MERTK (human) (UniProt Q12866)
[3] = test system: EGFR (human), P00533 [L861Q]
KIT (human) = KIT (human) (UniProt P10721)
CHUK (human) = CHUK (human) (UniProt O15111)
NEK2 (human) = NEK2 (human) (UniProt P51955)
RIPK4 (human) = RIPK4 (human) (UniProt P57078)
RPS6KA4 KD2 (human) = RPS6KA4 KD2 (human) (UniProt O75676)
MAPK6 (human) = MAPK6 (human) (UniProt Q16659)
TIE1 (human) = TIE1 (human) (UniProt P35590)
CSNK1A1 (human) = CSNK1A1 (human) (UniProt P48729)
PIM2 (human) = PIM2 (human) (UniProt Q9P1W9)
NEK1 (human) = NEK1 (human) (UniProt Q96PY6)
OXSR1 (human) = OXSR1 (human) (UniProt O95747)
NTRK1 (human) = NTRK1 (human) (UniProt P04629)
[4] = test system: FLT3 (human), P36888 [K663Q]
MAP3K5 (human) = MAP3K5 (human) (UniProt Q99683)
PIP5K1C (human) = PIP5K1C (human) (UniProt O60331)
AURKC (human) = AURKC (human) (UniProt Q9UQB9)
SIK1 (human) = SIK1 (human) (UniProt P57059)
MAP2K3 (human) = MAP2K3 (human) (UniProt P46734)

Chain of CDK11B (human) (P21127 whole entry, looked up): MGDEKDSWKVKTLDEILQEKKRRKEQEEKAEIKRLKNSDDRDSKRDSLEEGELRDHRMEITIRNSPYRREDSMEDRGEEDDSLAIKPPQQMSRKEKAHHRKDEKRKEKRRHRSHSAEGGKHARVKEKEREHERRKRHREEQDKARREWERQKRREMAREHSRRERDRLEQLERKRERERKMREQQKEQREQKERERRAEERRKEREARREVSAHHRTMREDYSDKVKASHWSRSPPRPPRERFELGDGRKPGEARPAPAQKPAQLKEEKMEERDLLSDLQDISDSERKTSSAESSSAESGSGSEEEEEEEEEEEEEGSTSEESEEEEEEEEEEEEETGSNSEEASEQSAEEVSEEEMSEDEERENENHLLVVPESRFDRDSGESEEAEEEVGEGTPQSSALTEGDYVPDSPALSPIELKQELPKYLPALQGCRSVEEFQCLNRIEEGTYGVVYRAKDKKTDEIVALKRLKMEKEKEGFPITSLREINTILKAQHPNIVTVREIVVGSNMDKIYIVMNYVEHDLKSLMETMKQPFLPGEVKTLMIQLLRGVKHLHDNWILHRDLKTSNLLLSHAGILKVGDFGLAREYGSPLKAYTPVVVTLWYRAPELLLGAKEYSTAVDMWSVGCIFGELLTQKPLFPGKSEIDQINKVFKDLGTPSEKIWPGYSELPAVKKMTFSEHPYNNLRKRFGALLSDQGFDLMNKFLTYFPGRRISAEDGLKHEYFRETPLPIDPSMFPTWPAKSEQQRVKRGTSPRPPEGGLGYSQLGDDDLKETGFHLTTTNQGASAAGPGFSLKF
Chain of TIE1 (human) (P35590 whole entry, looked up): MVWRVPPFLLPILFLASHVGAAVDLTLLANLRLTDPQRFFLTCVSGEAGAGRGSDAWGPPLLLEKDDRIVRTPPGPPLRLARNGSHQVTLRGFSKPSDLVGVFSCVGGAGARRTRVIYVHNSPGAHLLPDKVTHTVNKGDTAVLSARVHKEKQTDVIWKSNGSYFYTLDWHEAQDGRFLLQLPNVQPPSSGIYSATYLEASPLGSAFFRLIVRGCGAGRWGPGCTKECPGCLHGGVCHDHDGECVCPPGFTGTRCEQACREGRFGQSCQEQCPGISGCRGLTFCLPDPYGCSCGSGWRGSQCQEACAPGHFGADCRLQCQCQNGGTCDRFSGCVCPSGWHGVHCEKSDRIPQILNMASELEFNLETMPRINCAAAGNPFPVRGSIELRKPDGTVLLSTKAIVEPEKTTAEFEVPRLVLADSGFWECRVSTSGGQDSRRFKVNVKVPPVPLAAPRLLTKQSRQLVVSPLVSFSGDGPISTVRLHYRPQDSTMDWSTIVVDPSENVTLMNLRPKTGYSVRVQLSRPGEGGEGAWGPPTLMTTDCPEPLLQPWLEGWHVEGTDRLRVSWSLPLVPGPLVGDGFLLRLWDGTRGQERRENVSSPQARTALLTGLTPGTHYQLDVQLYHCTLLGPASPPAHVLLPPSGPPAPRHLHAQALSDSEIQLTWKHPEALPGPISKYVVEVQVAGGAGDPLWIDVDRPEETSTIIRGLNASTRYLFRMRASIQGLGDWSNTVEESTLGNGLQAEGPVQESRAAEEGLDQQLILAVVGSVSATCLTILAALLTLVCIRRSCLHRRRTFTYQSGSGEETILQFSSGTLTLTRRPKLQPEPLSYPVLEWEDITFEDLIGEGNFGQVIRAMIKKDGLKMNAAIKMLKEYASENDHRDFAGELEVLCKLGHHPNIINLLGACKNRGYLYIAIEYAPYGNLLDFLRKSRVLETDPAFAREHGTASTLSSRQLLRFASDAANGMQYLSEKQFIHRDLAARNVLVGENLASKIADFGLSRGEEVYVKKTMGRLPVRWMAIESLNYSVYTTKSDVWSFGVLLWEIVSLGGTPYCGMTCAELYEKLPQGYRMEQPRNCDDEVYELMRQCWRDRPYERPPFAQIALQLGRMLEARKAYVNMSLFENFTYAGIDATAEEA
Chain of MAP4K1 (human) (Q92918 whole entry, looked up): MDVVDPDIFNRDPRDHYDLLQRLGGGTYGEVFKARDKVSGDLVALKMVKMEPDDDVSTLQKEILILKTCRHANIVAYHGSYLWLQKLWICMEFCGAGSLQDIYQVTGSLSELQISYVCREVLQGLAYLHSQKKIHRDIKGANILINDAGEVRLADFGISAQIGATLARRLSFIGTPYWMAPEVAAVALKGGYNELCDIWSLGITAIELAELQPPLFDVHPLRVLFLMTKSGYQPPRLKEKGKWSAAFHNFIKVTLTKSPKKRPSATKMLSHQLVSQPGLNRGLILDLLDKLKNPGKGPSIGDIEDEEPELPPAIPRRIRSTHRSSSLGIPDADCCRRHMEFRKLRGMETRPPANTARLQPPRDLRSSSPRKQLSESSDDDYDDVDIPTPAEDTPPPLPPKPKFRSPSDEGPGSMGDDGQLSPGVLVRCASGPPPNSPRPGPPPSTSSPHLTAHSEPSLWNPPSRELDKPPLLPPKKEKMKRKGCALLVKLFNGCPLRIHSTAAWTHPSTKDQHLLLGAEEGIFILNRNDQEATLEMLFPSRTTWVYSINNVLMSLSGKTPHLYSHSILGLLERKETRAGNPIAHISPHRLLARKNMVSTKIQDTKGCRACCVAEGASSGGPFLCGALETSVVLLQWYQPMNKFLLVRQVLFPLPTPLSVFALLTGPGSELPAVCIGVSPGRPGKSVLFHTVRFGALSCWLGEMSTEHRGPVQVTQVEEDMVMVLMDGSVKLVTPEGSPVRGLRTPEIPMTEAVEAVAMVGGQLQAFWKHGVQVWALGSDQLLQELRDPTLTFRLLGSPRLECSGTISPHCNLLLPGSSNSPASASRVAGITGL
Chain of MKNK2 (human) (Q9HBH9 whole entry, looked up): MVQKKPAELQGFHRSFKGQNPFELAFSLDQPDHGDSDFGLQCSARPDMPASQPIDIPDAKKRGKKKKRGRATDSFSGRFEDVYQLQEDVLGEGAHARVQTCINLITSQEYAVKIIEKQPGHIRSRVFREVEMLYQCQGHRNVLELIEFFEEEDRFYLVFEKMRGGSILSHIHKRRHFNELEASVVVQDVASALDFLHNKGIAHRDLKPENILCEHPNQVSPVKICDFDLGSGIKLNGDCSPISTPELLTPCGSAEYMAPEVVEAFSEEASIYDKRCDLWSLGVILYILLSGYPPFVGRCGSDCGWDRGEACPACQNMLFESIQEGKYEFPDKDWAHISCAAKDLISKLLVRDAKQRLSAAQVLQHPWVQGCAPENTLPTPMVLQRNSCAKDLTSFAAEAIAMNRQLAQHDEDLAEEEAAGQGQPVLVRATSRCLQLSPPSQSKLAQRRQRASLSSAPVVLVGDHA
Chain of KIT (human) (P10721 whole entry, looked up): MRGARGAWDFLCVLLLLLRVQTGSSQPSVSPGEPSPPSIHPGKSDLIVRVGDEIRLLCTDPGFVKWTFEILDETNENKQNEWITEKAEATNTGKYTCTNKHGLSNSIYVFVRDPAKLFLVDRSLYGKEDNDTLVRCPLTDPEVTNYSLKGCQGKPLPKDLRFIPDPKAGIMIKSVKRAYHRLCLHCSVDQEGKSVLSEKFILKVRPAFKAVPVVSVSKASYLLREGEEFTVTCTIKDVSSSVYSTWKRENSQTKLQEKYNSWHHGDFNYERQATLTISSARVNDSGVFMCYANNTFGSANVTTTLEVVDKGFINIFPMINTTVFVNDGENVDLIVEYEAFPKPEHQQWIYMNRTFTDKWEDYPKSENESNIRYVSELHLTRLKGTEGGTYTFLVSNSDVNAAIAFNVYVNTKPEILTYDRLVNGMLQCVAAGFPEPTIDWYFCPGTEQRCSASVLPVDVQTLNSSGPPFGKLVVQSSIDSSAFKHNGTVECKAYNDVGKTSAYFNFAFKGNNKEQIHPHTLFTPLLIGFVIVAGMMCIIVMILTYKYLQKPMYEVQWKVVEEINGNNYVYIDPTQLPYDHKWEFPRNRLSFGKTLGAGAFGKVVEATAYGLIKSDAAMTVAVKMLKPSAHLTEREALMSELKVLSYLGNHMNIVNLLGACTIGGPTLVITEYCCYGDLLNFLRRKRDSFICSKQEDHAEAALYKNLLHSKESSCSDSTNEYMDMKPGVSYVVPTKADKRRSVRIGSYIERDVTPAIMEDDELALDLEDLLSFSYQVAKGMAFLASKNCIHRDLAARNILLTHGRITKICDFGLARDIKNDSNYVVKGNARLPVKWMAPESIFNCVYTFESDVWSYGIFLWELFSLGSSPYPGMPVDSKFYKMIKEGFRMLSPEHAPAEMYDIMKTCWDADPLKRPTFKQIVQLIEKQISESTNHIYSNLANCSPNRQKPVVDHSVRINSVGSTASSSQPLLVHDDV
Chain of CAMK2G (human) (Q13555 whole entry, looked up): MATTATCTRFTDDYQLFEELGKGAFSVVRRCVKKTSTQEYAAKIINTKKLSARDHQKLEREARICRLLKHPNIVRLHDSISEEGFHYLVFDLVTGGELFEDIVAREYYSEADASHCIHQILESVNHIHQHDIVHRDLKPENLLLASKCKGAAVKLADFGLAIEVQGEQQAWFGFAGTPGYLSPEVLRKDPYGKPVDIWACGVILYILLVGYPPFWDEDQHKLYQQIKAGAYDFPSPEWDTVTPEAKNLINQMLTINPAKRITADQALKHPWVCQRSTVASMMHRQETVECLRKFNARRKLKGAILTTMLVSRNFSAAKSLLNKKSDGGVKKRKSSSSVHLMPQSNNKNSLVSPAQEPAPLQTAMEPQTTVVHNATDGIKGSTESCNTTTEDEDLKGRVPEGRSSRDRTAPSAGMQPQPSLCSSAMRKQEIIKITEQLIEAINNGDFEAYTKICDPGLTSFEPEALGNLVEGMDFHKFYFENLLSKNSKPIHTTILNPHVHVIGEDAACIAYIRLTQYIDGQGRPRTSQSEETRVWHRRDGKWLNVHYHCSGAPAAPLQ
Chain of PIM2 (human) (Q9P1W9 whole entry, looked up): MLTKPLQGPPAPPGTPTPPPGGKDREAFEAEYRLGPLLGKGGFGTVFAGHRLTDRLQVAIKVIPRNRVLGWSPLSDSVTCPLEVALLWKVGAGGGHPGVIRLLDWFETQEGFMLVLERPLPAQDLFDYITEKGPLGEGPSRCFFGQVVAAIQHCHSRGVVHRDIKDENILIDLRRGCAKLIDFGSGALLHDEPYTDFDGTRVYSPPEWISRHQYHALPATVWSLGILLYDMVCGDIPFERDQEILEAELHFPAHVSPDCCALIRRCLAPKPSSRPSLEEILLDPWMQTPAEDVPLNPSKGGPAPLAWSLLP

Cc1cc(NC(=O)c2cccc(NC(=O)/C=C/CN(C)C)c2)ccc1Nc1nccc(-c2cccnc2)n1
kinase still bound, per cent of control (NEK11 (human)): 99%
kinase still bound, per cent of control (RPS6KA1 KD2 (human)): 88%
kinase still bound, per cent of control (MAP4K1 (human)): 89%
kinase still bound, per cent of control (ANKK1 (human)): 75%
kinase still bound, per cent of control (IKBKE (human)): 91%
kinase still bound, per cent of control (PRKAA1 (human)): 100%
kinase still bound, per cent of control (HIPK4 (human)): 4%
kinase still bound, per cent of control [1]: 71%
kinase still bound, per cent of control (CAMK1G (human)): 100%
kinase still bound, per cent of control (DCLK2 (human)): 94%
kinase still bound, per cent of control (PAK6 (human)): 100%
kinase still bound, per cent of control [2]: 100%
kinase still bound, per cent of control (CDK11B (human)): 100%
kinase still bound, per cent of control (RPS6KA5 KD2 (human)): 97%
kinase still bound, per cent of control (CSNK1E (human)): 70%
kinase still bound, per cent of control (IRAK1 (human)): 13%
kinase still bound, per cent of control (MAPK11 (human)): 20%
kinase still bound, per cent of control (EPHB2 (human)): 100%
kinase still bound, per cent of control (BMP2K (human)): 94%
kinase still bound, per cent of control (CAMK2G (human)): 100%
kinase still bound, per cent of control (MKNK2 (human)): 6.8%
kinase still bound, per cent of control (GAK (human)): 92%
kinase still bound, per cent of control (MERTK (human)): 100%
kinase still bound, per cent of control [3]: 100%
kinase still bound, per cent of control (KIT (human)): 3.5%
kinase still bound, per cent of control (CHUK (human)): 100%
kinase still bound, per cent of control (NEK2 (human)): 100%
kinase still bound, per cent of control (RIPK4 (human)): 79%
kinase still bound, per cent of control (RPS6KA4 KD2 (human)): 74%
kinase still bound, per cent of control (MAPK6 (human)): 37%
kinase still bound, per cent of control (TIE1 (human)): 91%
kinase still bound, per cent of control (CSNK1A1 (human)): 73%
kinase still bound, per cent of control (PIM2 (human)): 100%
kinase still bound, per cent of control (NEK1 (human)): 81%
kinase still bound, per cent of control (OXSR1 (human)): 89%
kinase still bound, per cent of control (NTRK1 (human)): 87%
kinase still bound, per cent of control [4]: 75%
kinase still bound, per cent of control (MAP3K5 (human)): 100%
kinase still bound, per cent of control (PIP5K1C (human)): 93%
kinase still bound, per cent of control (AURKC (human)): 95%
kinase still bound, per cent of control (SIK1 (human)): 100%
kinase still bound, per cent of control (MAP2K3 (human)): 95%
